Measured values reported in patent US20160008471A1, “TRANSDERMAL FORMULATIONS” (priority 2013, published 2016).
Counter-ions that a name gives are not always drawn. Like-named read-outs stand apart in the source and are kept apart here.

How the values were obtained:
[1] = at RT; cited from earlier work
[2] = male, bovine, pH 7.4
[3] = horse
[4] = rabbit
[5] = Moxidectin skin deposition study; assay type: in vitro ADME, bovine; details: 72 hours
Experimental: The amount of moxidectin accumulating in the bovine skin was determined using whole skin thickness (approx. […]) and split skin thickness (approx. […]) after 72 hours. The skin tissue was physically broken down using a Gentle MACS dissociator (Miltenyi Biotec GmbH, Germany) with 5 mL of methanol added into each sample. The dissociator setting was RNA-02.01 with M-type tubes for 90 seconds. Centrifuged samples had the supernatant collected and diluted 2 times with ACN before being analysed by the HPLC method.

[6] = cited from earlier work; for Solubility (Aq): in words; for pKa (acidic): first pKa (acidic) column
[7] = Stability of test composition with surfactants (phase separation, crystals); assay type: physicochemical; details: surfactant added to test composition (Table 5); room temperature (24±1° C.)
Experimental: The purpose of this study was to examine the stability of the formula which may comprise surface active agents such as surfactants. […] Three temperatures (RT, 4.5° C. and −20° C.) were used to monitor for phase separation and/or drug crystal formation every one or two days from 6 days.

[8] = Solubility of actives in individual solvents
Excerpt: The purpose of these studies was to identify solvents and co-solvents to optimise solubility of actives and the physical/chemical stability of product.

Span 80
HLB [1]: 4.3

CCN(CC)CCNC(=O)c1cc(Cl)c(N)cc1OC [Metoclopramide, Metacloprimide HCl]
Mean (μg/cm2) permeated ([2]; 0 h): 0 μg/cm2
Mean (μg/cm2) permeated ([2]; 2 h): 16.2 μg/cm2
Mean (μg/cm2) permeated ([2]; 4 h): 251 μg/cm2
Mean (μg/cm2) permeated ([2]; 6 h): 456 μg/cm2
Mean (μg/cm2) permeated ([2]; 8 h): 960 μg/cm2
Mean (μg/cm2) permeated ([2]; 20 h): 2188 μg/cm2
Mean (μg/cm2) permeated ([2]; 24 h): 2252 μg/cm2
Mean (μg/cm2) permeated ([2]; 26 h): 2718 μg/cm2
Mean (μg/cm2) permeated ([2]; 44 h): 4779 μg/cm2
Mean (μg/cm2) permeated ([2]; 48 h): 5169 μg/cm2
Mean (μg/cm2) permeated ([2]; 52 h): 5394 μg/cm2
Flux ([2]; 58 h): 109.4±11.8 μg/cm^2/hr
Mean (μg/cm2) permeated ([2]; 68 h): 5336 μg/cm2
Mean (μg/cm2) permeated ([2]; 70 h): 5613 μg/cm2
APC ([2]; 72 h): 97.1 cm/s × 10^−8
Extent 72 h ([2]; 72 h): 5346 μg/cm^2
Flux ([2]; 72 h): 109 μg/cm^2/hr
Mean (μg/cm2) permeated ([2]; 72 h): 5346 μg/cm2
lag T [2]: 1.07 h
lag T [3]: 3.11 h
Mean (μg/cm2) permeated ([3]; 0 h): 0 μg/cm2
Mean (μg/cm2) permeated ([3]; 2 h): 0 μg/cm2
Mean (μg/cm2) permeated ([3]; 4 h): 0 μg/cm2
Mean (μg/cm2) permeated ([3]; 6 h): 0 μg/cm2
Mean (μg/cm2) permeated ([3]; 8 h): 68.1 μg/cm2
Mean (μg/cm2) permeated ([3]; 10 h): 679 μg/cm2
Mean (μg/cm2) permeated ([3]; 20 h): 1372 μg/cm2
Flux ([3]; 24 h): 67.0±24.6 μg/cm^2/hr
Mean (μg/cm2) permeated ([3]; 24 h): 1533 μg/cm2
Mean (μg/cm2) permeated ([3]; 26 h): 1477 μg/cm2
Mean (μg/cm2) permeated ([3]; 28 h): 1640 μg/cm2
Mean (μg/cm2) permeated ([3]; 44 h): 2604 μg/cm2
Mean (μg/cm2) permeated ([3]; 46 h): 2784 μg/cm2
Mean (μg/cm2) permeated ([3]; 48 h): 2910 μg/cm2
Mean (μg/cm2) permeated ([3]; 50 h): 2930 μg/cm2
Mean (μg/cm2) permeated ([3]; 52 h): 3078 μg/cm2
Mean (μg/cm2) permeated ([3]; 68 h): 3350 μg/cm2
Mean (μg/cm2) permeated ([3]; 70 h): 3440 μg/cm2
APC ([3]; 72 h): 62.7 cm/s × 10^−8
Extent 72 h ([3]; 72 h): 3454 μg/cm^2
Flux ([3]; 72 h): 67.0 μg/cm^2/hr
Mean (μg/cm2) permeated ([3]; 72 h): 3454 μg/cm2
Flux [4]: 38.6±9.2 μg/cm^2/hr
lag T [4]: 4.84 h
Mean (μg/cm2) permeated ([4]; 0 h): 0 μg/cm2
Mean (μg/cm2) permeated ([4]; 2 h): 0 μg/cm2
Mean (μg/cm2) permeated ([4]; 4 h): 0 μg/cm2
Mean (μg/cm2) permeated ([4]; 6 h): 0 μg/cm2
Mean (μg/cm2) permeated ([4]; 8 h): 0 μg/cm2
Mean (μg/cm2) permeated ([4]; 10 h): 32.3 μg/cm2
Mean (μg/cm2) permeated ([4]; 20 h): 685 μg/cm2
Mean (μg/cm2) permeated ([4]; 24 h): 772 μg/cm2
Mean (μg/cm2) permeated ([4]; 26 h): 831 μg/cm2
Mean (μg/cm2) permeated ([4]; 28 h): 925 μg/cm2
Mean (μg/cm2) permeated ([4]; 44 h): 1537 μg/cm2
Mean (μg/cm2) permeated ([4]; 46 h): 1612 μg/cm2
Mean (μg/cm2) permeated ([4]; 48 h): 1567 μg/cm2
Mean (μg/cm2) permeated ([4]; 50 h): 1782 μg/cm2
Mean (μg/cm2) permeated ([4]; 52 h): 1968 μg/cm2
Mean (μg/cm2) permeated ([4]; 68 h): 2391 μg/cm2
Mean (μg/cm2) permeated ([4]; 70 h): 2387 μg/cm2
APC ([4]; 72 h): 45.7 cm/s × 10^−8
Extent 72 h ([4]; 72 h): 2515 μg/cm^2
Flux ([4]; 72 h): 38.6 μg/cm^2/hr
Mean (μg/cm2) permeated ([4]; 72 h): 2515 μg/cm2

CCCCCCCC/C=C\CCCCCCCCOCCOCCO [Brij 93, polyoxyethylene (2) oleyl ether]
HLB [1]: 4.5 ± 0.4

CO/N=C1\C[C@]2(C[C@@H]3C[C@@H](C/C=C(\C)C[C@@H](C)/C=C/C=C4\CO[C@@H]5[C@H](O)C(C)=C[C@@H](C(=O)O3)[C@]45O)O2)O[C@H](/C(C)=C/C(C)C)[C@H]1C [Moxidectin, moxidectin]
proportion of the drug in Donor ([5]; 500 μm skin): 51%
proportion of the drug in Receptor ([5]; 500 μm skin): 31%
proportion of the drug in Skin ([5]; 500 μm skin): 18%
proportion of the drug in Donor ([5]; Whole skin): 65%
proportion of the drug in Receptor ([5]; Whole skin): 3%
proportion of the drug in Skin ([5]; Whole skin): 32%
flux rate of moxidectin ([2]; 72 h): 475±185.2 ng/cm^2/hr
Solubility (Aq) [6]: Insoluble

Span 60
HLB [1]: 4.7

C[C@]12CCC(=O)C=C1CC[C@@H]1[C@@H]2[C@@H](O)C[C@@]2(C)[C@H]1CC[C@]2(O)C(=O)CO [Hydrocortisone, Hydrocortisone (base)]
pKa (basic) [6]: −2.8
pKa (acidic) [6]: 12.6

CCCCCCCC/C=C\CCCCCCCC(=O)OCCOCC(OCCO)C1OCC(OCCO)C1OCCO (stereo not shown) [Tween 80]
Stability of test composition, RT [7]: S

c1ccc([C@H]2CN3CCSC3=N2)cc1 [Lev. Base, levamisole base]
flux rate of levamisole ([2]; 72 h): 949.6±80.8 μg/cm^2/hr
logP [6]: 1.8
pKa (acidic) [6]: 8
Solubility (Aq) [6]: Insoluble
pKa ([6]; stated for the basic drug LEV): 8

Tocopherol
HLB [1]: 6.0

abamectin
logP [6]: 4.4
Solubility (Aq) [6]: Insoluble
Maximum Solubility % w/w ([8]; in AGNIQUE AMD 10): At least 1 % w/w
Maximum Solubility % w/w ([8]; in AGNIQUE AMD 810): At least 1 % w/w
Maximum Solubility % w/w ([8]; in Cremophor): At least 1 % w/w
Maximum Solubility % w/w ([8]; in DMSO): At least 1 % w/w
Maximum Solubility % w/w ([8]; in Dipropylenglycol dimethylether): At least 1 % w/w
Maximum Solubility % w/w ([8]; in Ecoteric T80): At least 1 % w/w
Maximum Solubility % w/w ([8]; in Glycerol Formal): 19 % w/w
Maximum Solubility % w/w ([8]; in Isopropyl Mirystate): At least 1 % w/w
Maximum Solubility % w/w ([8]; in Isopropyleneglycol): 7 % w/w
Maximum Solubility % w/w ([8]; in Isosorbide): At least 1 % w/w
Maximum Solubility % w/w ([8]; in PEG400): At least 1 % w/w
Maximum Solubility % w/w ([8]; in Polysorbate 20): At least 1 % w/w
Maximum Solubility % w/w ([8]; in Span 80): At least 1 % w/w
Maximum Solubility % w/w ([8]; in Tetraglycol): 8 % w/w
Maximum Solubility % w/w ([8]; in Triacetin): 3 % w/w
Maximum Solubility % w/w ([8]; in Tripropylene glycol methylether (TPGME)): 8 % w/w
